Reference: paper PMC11617668, “Developing Allosteric Inhibitors of SARS‐CoV‐2 RNA‐Dependent RNA Polymerase” (Chemmedchem, 2024)
In brackets after ≈: the same amount, converted by molar mass.

Target: SARS‐CoV‐2 RdRp complex (nsp12, nsp7, nsp8) (Severe acute respiratory syndrome coronavirus 2, UniProt P0DTD1)
Assay: Fluorescence-based RdRp polymerase assay (SYBR Green I RNA extension)
Assay type: biochemical
Conditions: 10 μM screening; AUC with compound / AUC of non-inhibited reaction x 100

Row | Compound | residual activity (RA) of the SARS‐CoV‐2 RdRp complex
1 | 3,4‐Dichloro‐N‐(6‐(Trifluoromethyl)‐1H‐Benzo[d]imidazol‐2‐yl)benzamide [Compound 57] | 100%
2 | 1‐(3,5‐Dichlorophenyl)‐3‐(3‐(Trifluoromethyl)phenyl)guanidine Hydrochloride [Compound 54] | 100%
3 | COC(=O)c1cc(NC(=O)Nc2cccc([N+](=O)[O-])c2)cc(C(=O)O)c1 [Compound 20, 3‐(Methoxycarbonyl)‐5‐(3‐(3‐Nitrophenyl)ureido)benzoic Acid] | complete loss of activity
4 | O=C(Nc1cc(C(=O)O)cc(C(=O)O)c1)Nc1cccc([N+](=O)[O-])c1 [Compound 21, 5‐(3‐(3‐Nitrophenyl)ureido)isophthalic acid] | complete loss of activity

Same assay, conditions: 50 min, read-out: residual activity (RA) of the SARS‐CoV‐2 RdRp complex

Row | Compound | remaining activity at 10 µM
5 | COC(=O)c1cc(NC(=O)Nc2cccc(C#N)c2)cc(C(=O)OC)c1 [Compound 6, Dimethyl 5‐(3‐(3‐Cyanophenyl)ureido)isophthalate] | 100%
6 | O=C(Nc1ccc([N+](=O)[O-])cc1)Nc1ccccc1Cc1ccccc1 [Compound 42] | 63%
7 | COC(=O)c1cc(NC(=O)Nc2cccc(C(F)(F)F)c2)cc(C(=O)OC)c1 [Compound 9, Dimethyl 5‐(3‐(3‐Trifluoromethylphenyl)ureido)isophthalate] | 70%
8 | CC(=O)c1cccc(NC(=O)Nc2cc(C(=O)OC(C)C)cc(C(=O)OC(C)C)c2)c1 [Compound 28] | 100%
9 | COC(=O)c1cc(NC(=O)Nc2ccc(S(N)(=O)=O)cc2)cc(C(=O)OC)c1 [Compound 8, Dimethyl 5‐(3‐(4‐Sulfamoylphenyl)ureido)isophthalate] | 100%
10 | O=C(Nc1cc(Cl)cc(Cl)c1)c1nc2ccc(C(F)(F)F)cc2[nH]1 [Compound 58, N‐(3,5‐Dichlorophenyl)‐6‐(Trifluoromethyl)‐1H‐Benzo[d]imidazole‐2‐Carboxamide] | 100%
11 | O=[N+]([O-])c1cccc(NC(=S)Nc2ccccc2Cc2ccccc2)c1 [Compound 44] | 100%
12 | O=C(Nc1cccc([N+](=O)[O-])c1)NC1CC1 [Compound 40] | 100%
13 | O=C(Nc1cccc([N+](=O)[O-])c1)Nc1cnccn1 [Compound 39] | 100%
14 | COC(=O)c1cc(NC(=O)Nc2ccc(C)cc2)cc(C(=O)OC)c1 [Compound 25] | 100%
15 | O=C(Nc1cccc(C(F)(F)F)c1)Nc1nc2cc(Cl)c(Cl)cc2[nH]1 [Compound 59, 1‐(5,6‐Dichloro‐1H‐Benzo[d]imidazol‐2‐yl)‐3‐(3‐(Trifluoromethyl)phenyl)urea] | 50%
16 | COc1ccc(NC(=O)Nc2cc(C(=O)OC(C)C)cc(C(=O)OC(C)C)c2)c(OC)c1 [Compound 27] | 100%
17 | CCOC(=O)c1cccc(NC(=O)Nc2cc(C(=O)OC)cc(C(=O)OC)c2)c1 [Compound 10, Dimethyl 5‐(3‐(3‐(Ethoxycarbonyl)phenyl)ureido)isophthalate] | 100%
18 | COc1cc(NC(=O)Nc2cccc(CNC(=O)O[C@H]3CCOC3)c2)ccc1-c1cnco1 [merimepodib, reference compound] | 100%
19 | COC(=O)c1cc(NC(=O)Nc2cccc([N+](=O)[O-])c2)cc(C(=O)OC)c1 [Compound 17, Dimethyl 5‐(3‐(3‐Nitrophenyl)ureido)isophthalate] | 51%
20 | O=C(Nc1cccc([N+](=O)[O-])c1)Nc1ccccc1Cc1ccccc1 [Compound 31] | 78%
21 | COC(=O)c1cc(NC(=O)Nc2ccncc2)cc(C(=O)OC)c1 [Compound 14, Dimethyl 5‐(3‐(Pyridin‐4‐yl)ureido)isophthalate] | 100%
22 | COC(=O)c1cc(NC(=O)Nc2ccc(C#N)cc2)cc(C(=O)OC)c1 [Compound 7, Dimethyl 5‐(3‐(4‐Cyanophenyl)ureido)isophthalate] | 100%
23 | CCNS(=O)(=O)c1ccc(NC(=O)Nc2cccc([N+](=O)[O-])c2)cc1 [Compound 35] | 100%
24 | O=C(Nc1cc(Cl)cc(Cl)c1)Nc1cccc(C(F)(F)F)c1 [Compound 47, 1‐(3,5‐Dichlorophenyl)‐3‐(3‐(Trifluoromethyl)phenyl)urea] | 45%
25 | O=C(Nc1cccc([N+](=O)[O-])c1)Nc1cc(C(F)(F)F)cc(C(F)(F)F)c1 [Compound 19, 1‐(3,5‐Bis(trifluoromethyl)phenyl)‐3‐(3‐Nitrophenyl)urea] | 62%
26 | O=C(Nc1cccc([N+](=O)[O-])c1)Nc1ccc2ccccc2c1 [Compound 30] | 73%
27 | O=C(Nc1ccc([N+](=O)[O-])cc1)Nc1cc(Cl)cc(Cl)c1 [Compound 41] | 40%
28 | COC(=O)c1ccc(C(=O)OC)c(NC(=O)Nc2cccc([N+](=O)[O-])c2)c1 [Compound 36] | 100%

Row | Compound | remaining activity at 10 µM
29 | O=C(Nc1cc(Cl)cc(Cl)c1)C(=O)Nc1cccc(C(F)(F)F)c1 [Compound 53, N ^1‐(3,5‐Dichlorophenyl)‐N ^2‐(3‐(Trifluoromethyl)phenyl)oxalamide] | 100%
30 | O=[N+]([O-])c1cccc(NC(=S)Nc2ccc(Cl)c(C(F)(F)F)c2)c1 [Compound 43] | 77%
31 | FC(F)(F)c1cccc(Nc2nc3cc(Cl)c(Cl)cc3[nH]2)c1 [Compound 56, 5,6‐Dichloro‐N‐(3‐(Trifluoromethyl)phenyl)‐1H‐Benzo[d]imidazol‐2‐Amine] | 60%
32 | COc1cc(NC(=O)Nc2cccc([N+](=O)[O-])c2)cc(OC)c1 [Compound 38] | 100%
33 | COC(=O)c1cc(NC(=O)Nc2cccc(F)c2)cc(C(=O)OC)c1 [Compound 26] | 100%
34 | O=C(Cc1cc(Cl)cc(Cl)c1)Nc1ccc([N+](=O)[O-])cc1 [Compound 52, 2‐(3,5‐Dichlorophenyl)‐N‐(4‐Nitrophenyl)acetamide] | 100%
35 | COC(=O)c1cc(NC(=O)Nc2cc([N+](=O)[O-])cc([N+](=O)[O-])c2)cc(C(=O)OC)c1 [Compound 12, Dimethyl 5‐(3‐(3,5‐Dinitophenyl)ureido)isophthalate] | 100%
36 | COC(=O)c1cc(NC(=O)Nc2cccc(C(=O)O)c2)cc(C(=O)OC)c1 [Compound 13, 3‐(3‐(3,5‐Bis(methoxycarbonyl)phenyl)ureido)benzoic Acid] | 100%
37 | COC(=O)c1cc(NC(=O)Nc2cccc([N+](=O)[O-])c2)cc(C(=O)O)c1 [Compound 20, 3‐(Methoxycarbonyl)‐5‐(3‐(3‐Nitrophenyl)ureido)benzoic Acid] | 100%
38 | O=C(Cc1ccc([N+](=O)[O-])cc1)Nc1cc(Cl)cc(Cl)c1 [Compound 49, N‐(3,5‐Dichlorophenyl)‐2‐(4‐Nitrophenyl)acetamide] | 100%
39 | COC(=O)c1cc(NC(=O)Nc2ccccc2)cc(C(=O)OC)c1 [Compound 23] | 100%
40 | O=C(Nc1ccc(C(=O)O)cc1)Nc1cccc([N+](=O)[O-])c1 [Compound 34] | 100%
41 | O=C(Nc1cc(C(=O)O)cc(C(=O)O)c1)Nc1cccc([N+](=O)[O-])c1 [Compound 21, 5‐(3‐(3‐Nitrophenyl)ureido)isophthalic acid] | 100%
42 | CC(=O)Nc1cccc(NC(=O)Nc2cccc([N+](=O)[O-])c2)c1 [Compound 37] | 100%
43 | O=C(Nc1ccc(Cl)cc1)Nc1cccc([N+](=O)[O-])c1 [Compound 33] | 100%
44 | COC(=O)c1cc(NC(=O)Nc2ccc([N+](=O)[O-])cc2)cc(C(=O)OC)c1 [Compound 22] | 50%
45 | O=C(Nc1ccccc1)Nc1ccc(-c2ccc(C(=O)[C@@H]3CCC[C@H]3C(=O)O)cc2)cc1 [Compound A922500, A922500, reference compound] | 100%
46 | O=C(Nc1cccc([N+](=O)[O-])c1)Nc1ccc(Cl)c(C(F)(F)F)c1 [Compound 29] | 58%
47 | CNC(=O)c1cc(Oc2ccc(NC(=O)Nc3ccc(Cl)c(C(F)(F)F)c3)c(F)c2)ccn1 [regorafenib, reference compound] | 76%
48 | CCCCNC(=O)Nc1cc(C(=O)OC)cc(C(=O)OC)c1 [Compound 5, Dimethyl 5‐(3‐Butylureido)isophthalate] | 100%
49 | O=C(Nc1ccc(C(F)(F)F)cc1)Nc1cccc([N+](=O)[O-])c1 [Compound 32] | 100%
50 | COC(=O)c1cc(NC(=O)Nc2cc(C(F)(F)F)cc(C(F)(F)F)c2)cc(C(=O)OC)c1 [Compound 11, Dimethyl 5‐(3‐(3,5‐Bis(trifluoromethyl)phenyl)ureido)isophthalate] | 65%
51 | O=C(Nc1cccc([N+](=O)[O-])c1)Nc1cccc([N+](=O)[O-])c1 [Compound 18, 1,3‐Bis(3‐nitrophenyl)urea] | 100%

Test system: not listed separately
Assay: Kinetic solubility test in enzymatic assay medium
Assay type: physicochemical
Conditions: aqueous HEPES buffer with 5 % DMSO, pH 8, aqueous with cosolvent or surfactant or cyclodextrin, kinetic from dmso stock
Protocol: Kinetic solubility tests were performed in the medium used for the enzymatic assay–aqueous solution of HEPES buffer with 5 % DMSO. […] This poor aqueous solubility represents a big hurdle in the development of potential antivirals and the improvement of solubility will be considered in further structural optimization efforts of this class of compounds.

Row | Compound | solubility kinetic
52 | O=C(Nc1cccc(C(F)(F)F)c1)Nc1nc2cc(Cl)c(Cl)cc2[nH]1 [Compound 59, 1‐(5,6‐Dichloro‐1H‐Benzo[d]imidazol‐2‐yl)‐3‐(3‐(Trifluoromethyl)phenyl)urea] | 2.53 ± 0.03 µM (≈ 0.985 µg/mL)
53 | O=C(Nc1cc(Cl)cc(Cl)c1)Nc1cccc(C(F)(F)F)c1 [Compound 47, 1‐(3,5‐Dichlorophenyl)‐3‐(3‐(Trifluoromethyl)phenyl)urea] | < 2 µM
54 | FC(F)(F)c1cccc(Nc2nc3cc(Cl)c(Cl)cc3[nH]2)c1 [Compound 56, 5,6‐Dichloro‐N‐(3‐(Trifluoromethyl)phenyl)‐1H‐Benzo[d]imidazol‐2‐Amine] | 7 ± 0.1 µM (≈ 2.42 µg/mL)

Test system: SARS‐CoV‐2
Assay: not given
Conditions: cited from earlier work

Row | Compound | cell infection | activity in cell assays against the virus
55 | CNC(=O)c1cc(Oc2ccc(NC(=O)Nc3ccc(Cl)c(C(F)(F)F)c3)cc2)ccn1 [sorafenib] | strongly inhibited cell infection | –
56 | O=C(Nc1ccccc1)Nc1ccc(-c2ccc(C(=O)[C@@H]3CCC[C@H]3C(=O)O)cc2)cc1 [Compound A922500, A922500, reference compound] | – | active
57 | CNC(=O)c1cc(Oc2ccc(NC(=O)Nc3ccc(Cl)c(C(F)(F)F)c3)c(F)c2)ccn1 [regorafenib, reference compound] | – | active

Same assay, conditions: in combination with remdesivir; cited from earlier work

Row | Compound | viral replication
58 | COc1cc(NC(=O)Nc2cccc(CNC(=O)O[C@H]3CCOC3)c2)ccc1-c1cnco1 [merimepodib, reference compound] | completely suppress viral replication

Test system: not listed separately
Assay: in vitro
Conditions: human
Protocol: Briefly, two‐fold fold serial dilutions of compounds were added in triplicate in a 384‐well plate with 15,000 Calu‐3 cells in DMEM medium with 2 % FBS, 100 U of penicillin/ml and 100 μg of streptomycin/ml (all Merck). After 1 h incubation SARS‐CoV‐2 was added at multiplicity of infection 0.01. Following three days incubation at 37 °C in 5 % CO2 the cell viability was determined by addition of XTT solution (Sigma‐Aldrich) for 4 h and the absorbance was measured using EnVision plate reader (Perkin Elmer). Drug concentrations required to reduce viral cytopathic effect by 50 % (EC50) were calculated using nonlinear regression from plots of percentage cell viability versus log10 drug concentration using GraphPad Prism v.9.0.0 (GraphPad Software). Cytotoxicity was evaluated by incubating the same two‐fold serial dilutions of each compound with Calu‐3 cells as above but without virus. Following three days of incubation at 37 °C in 5 % CO2, the cell viability was determined by the addition of XTT solution as above. The compound concentrations resulting in a 50 % reduction of absorbance (CC50) were calculated from plots of the percentage of absorbance versus log10 drug concentration as above.

Row | Compound | CC50 at 3 days
59 | COC(=O)c1cc(NC(=O)Nc2cccc(C(F)(F)F)c2)cc(C(=O)OC)c1 [Compound 9, Dimethyl 5‐(3‐(3‐Trifluoromethylphenyl)ureido)isophthalate] | 10.6 µM
60 | O=C(Nc1cccc(C(F)(F)F)c1)Nc1nc2cc(Cl)c(Cl)cc2[nH]1 [Compound 59, 1‐(5,6‐Dichloro‐1H‐Benzo[d]imidazol‐2‐yl)‐3‐(3‐(Trifluoromethyl)phenyl)urea] | 23 µM
61 | O=C(Nc1cc(Cl)cc(Cl)c1)Nc1cccc(C(F)(F)F)c1 [Compound 47, 1‐(3,5‐Dichlorophenyl)‐3‐(3‐(Trifluoromethyl)phenyl)urea] | 0.49 µM
62 | O=C(Nc1cccc([N+](=O)[O-])c1)Nc1cc(C(F)(F)F)cc(C(F)(F)F)c1 [Compound 19, 1‐(3,5‐Bis(trifluoromethyl)phenyl)‐3‐(3‐Nitrophenyl)urea] | 3.4 µM
63 | FC(F)(F)c1cccc(Nc2nc3cc(Cl)c(Cl)cc3[nH]2)c1 [Compound 56, 5,6‐Dichloro‐N‐(3‐(Trifluoromethyl)phenyl)‐1H‐Benzo[d]imidazol‐2‐Amine] | 43 µM
64 | COC(=O)c1cc(NC(=O)Nc2cc(C(F)(F)F)cc(C(F)(F)F)c2)cc(C(=O)OC)c1 [Compound 11, Dimethyl 5‐(3‐(3,5‐Bis(trifluoromethyl)phenyl)ureido)isophthalate] | 5.1 µM

Test system: SARS‐CoV‐2
Assay: not given
Conditions: Severe acute respiratory syndrome coronavirus 2, Calu-3, 72 h

Row | Compound | EC50
65 | COC(=O)c1cc(NC(=O)Nc2cccc(C(F)(F)F)c2)cc(C(=O)OC)c1 [Compound 9, Dimethyl 5‐(3‐(3‐Trifluoromethylphenyl)ureido)isophthalate] | > 10 µM
66 | O=C(Nc1cccc(C(F)(F)F)c1)Nc1nc2cc(Cl)c(Cl)cc2[nH]1 [Compound 59, 1‐(5,6‐Dichloro‐1H‐Benzo[d]imidazol‐2‐yl)‐3‐(3‐(Trifluoromethyl)phenyl)urea] | ~10 µM
67 | O=C(Nc1cc(Cl)cc(Cl)c1)Nc1cccc(C(F)(F)F)c1 [Compound 47, 1‐(3,5‐Dichlorophenyl)‐3‐(3‐(Trifluoromethyl)phenyl)urea] | > 0.49 µM
68 | O=C(Nc1cccc([N+](=O)[O-])c1)Nc1cc(C(F)(F)F)cc(C(F)(F)F)c1 [Compound 19, 1‐(3,5‐Bis(trifluoromethyl)phenyl)‐3‐(3‐Nitrophenyl)urea] | > 3 µM
69 | FC(F)(F)c1cccc(Nc2nc3cc(Cl)c(Cl)cc3[nH]2)c1 [Compound 56, 5,6‐Dichloro‐N‐(3‐(Trifluoromethyl)phenyl)‐1H‐Benzo[d]imidazol‐2‐Amine] | > 43 µM
70 | COC(=O)c1cc(NC(=O)Nc2cc(C(F)(F)F)cc(C(F)(F)F)c2)cc(C(=O)OC)c1 [Compound 11, Dimethyl 5‐(3‐(3,5‐Bis(trifluoromethyl)phenyl)ureido)isophthalate] | > 5 µM
